Measurements published in patent publication US20080153896A1, “Polymorphic Forms of an HMG-CoA Reductase Inhibitor and Uses Thereof” (priority 2006, published 2008).

Tests used:
[1] = target: CYP3A4 (cytochrome P450 3A4) (Homo sapiens, UniProt P08684); assay: Substrate for metabolic enzyme CYP3A4
cholesterol synthesis = assay: Inhibition of cholesterol synthesis in an in vivo rat model; conditions: vs atorvastatin
[2] = Intrinsic clearance in human liver microsomes; conditions: vs atorvastatin
[3] = test system: NRK-49F (Fibroblast) and L6 (Myoblast); assay: Inhibition of cholesterol synthesis in extra hepatic cells/cell lines
rat primary hepatocytes = assay: Inhibition of cholesterol synthesis in rat primary hepatocytes; format: cell-based; conditions: vs atorvastatin
[4] = target: T1, 3-hydroxy-3-methylglutaryl-coenzyme A (HMG-CoA) reductase (Homo sapiens, UniProt P04035); assay: HMG-CoA reductase inhibition, potency compared with atorvastatin; format: biochemical; conditions: vs atorvastatin
T1 sequence (P04035 1-888): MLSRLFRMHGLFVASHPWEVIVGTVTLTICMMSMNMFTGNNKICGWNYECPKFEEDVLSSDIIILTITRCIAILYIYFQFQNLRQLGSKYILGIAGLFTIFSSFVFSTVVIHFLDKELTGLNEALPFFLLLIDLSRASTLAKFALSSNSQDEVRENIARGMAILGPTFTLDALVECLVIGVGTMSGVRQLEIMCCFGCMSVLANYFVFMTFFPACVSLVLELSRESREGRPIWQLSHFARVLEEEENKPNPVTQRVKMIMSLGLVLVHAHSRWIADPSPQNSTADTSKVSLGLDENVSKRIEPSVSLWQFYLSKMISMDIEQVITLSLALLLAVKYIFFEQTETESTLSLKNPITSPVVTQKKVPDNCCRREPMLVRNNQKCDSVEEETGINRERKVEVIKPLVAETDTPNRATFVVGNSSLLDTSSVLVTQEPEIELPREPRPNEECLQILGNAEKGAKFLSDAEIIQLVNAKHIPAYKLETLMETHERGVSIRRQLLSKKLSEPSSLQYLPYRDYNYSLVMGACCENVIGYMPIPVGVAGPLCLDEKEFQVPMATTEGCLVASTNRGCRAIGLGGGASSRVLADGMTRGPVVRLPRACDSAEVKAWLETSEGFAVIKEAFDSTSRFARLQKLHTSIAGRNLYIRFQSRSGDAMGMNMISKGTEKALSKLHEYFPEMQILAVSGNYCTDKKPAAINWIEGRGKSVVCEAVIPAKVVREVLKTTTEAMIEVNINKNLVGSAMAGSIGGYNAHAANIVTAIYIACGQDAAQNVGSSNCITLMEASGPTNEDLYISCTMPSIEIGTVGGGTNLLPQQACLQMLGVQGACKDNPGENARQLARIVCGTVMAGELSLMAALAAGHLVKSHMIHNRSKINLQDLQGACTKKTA

CYP3A4 (cytochrome P450 3A4), sequence (P08684 whole entry): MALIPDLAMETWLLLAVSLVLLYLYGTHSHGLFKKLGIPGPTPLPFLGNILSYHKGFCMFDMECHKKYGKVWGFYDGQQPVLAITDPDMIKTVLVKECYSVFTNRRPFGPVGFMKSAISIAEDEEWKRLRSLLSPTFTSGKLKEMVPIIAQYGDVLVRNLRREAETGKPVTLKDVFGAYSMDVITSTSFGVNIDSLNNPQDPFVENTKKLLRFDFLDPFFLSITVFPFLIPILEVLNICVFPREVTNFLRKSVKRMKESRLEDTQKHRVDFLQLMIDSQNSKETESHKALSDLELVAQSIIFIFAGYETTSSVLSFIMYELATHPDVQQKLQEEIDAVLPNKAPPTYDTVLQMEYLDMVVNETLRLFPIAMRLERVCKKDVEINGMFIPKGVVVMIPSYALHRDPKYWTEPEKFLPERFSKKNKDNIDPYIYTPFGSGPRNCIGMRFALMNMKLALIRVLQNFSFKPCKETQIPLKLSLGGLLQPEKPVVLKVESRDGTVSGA

(3R,5R)-7-[2-(4-fluorophenyl)-5-isopropyl-3-phenyl-4-[(4-hydroxymethylphenylamino)carbonyl]-pyrrol-1-yl]-3,5-dihydroxy-heptanoic acid hemi calcium salt [compound of Formula I]
substrate for the metabolic enzyme CYP3A4 [1]: not a major substrate | potency in inhibiting cholesterol synthesis (cholesterol synthesis): more potent than atorvastatin | intrinsic clearance [2]: significantly less than atorvastatin | selectivity, inhibition of cholesterol synthesis in rat primary hepatocytes over extra hepatic cells/cell lines ([3]; NRK-49F and L6, vs atorvastatin): greater | hepatoselectivity ([3]; vs atorvastatin): better hepatoselectivity | potency in the inhibition of cholesterol synthesis (rat primary hepatocytes): greater potency | potency relative to atorvastatin [4]: equipotent to atorvastatin
